From US20250000814A1 (DONG-A ST CO., LTD., priority 2021, published 2025)
Structures can show the parent of a compound that is named as a salt.

Key:
[1] = Solubility evaluation for the solubilizer propylene glycol monocaprylate; conditions: for Propylene glycol monocaprylate solubility: 25° C., 24 hours, 50 mg as memantine free base added to 1 mL
Protocol: The resulting mixture was treated in a shaking constant temperature bath at 25° C. for 24 hours.
<Liquid Chromatography Conditions>

[2] = Oil phase skin permeability screening, Franz diffusion cell; assay type: in vitro ADME; conditions: 200 ul of 50 mg/mL salt in propylene glycol monocaprylate, human cadaver skin; for Skin penetration rate: 7 days
Protocol: A pH 7.4 phosphate buffer containing 10% ethanol and 0.02% sodium azide as an aqueous solution was added to the receptor chamber of the Franz diffusion cell, and with the temperature maintained at 32±0.5° C., it was rotated at 600 rpm and stirred.

[3] = cited from earlier work

Memantine Hemi-Maleate
Propylene glycol monocaprylate solubility [1]: <5000 µg/mL

CC(=O)CCC(=O)O.CC12CC3CC(C)(C1)CC(N)(C3)C2 [levulinate, Memantine Levulinate, reference compound]
Skin permeability for 7 days [2]: 3661 ug/cm2
Skin penetration rate [2]: 22 ug/cm2/hr

CC12CC3CC(C)(C1)CC(N)(C3)C2 [hydrochloride, Memantine hydrochloride, reference compound]
solubility at 24 h ([1]; 25 °C, oil or lipid, thermodynamic from solid): < 5000 µg/mL

Memantine Hemi-Naphthalene Disulfonate
Propylene glycol monocaprylate solubility [1]: <5000 µg/mL

CC12CC3CC(C)(C1)CC(N)(C3)C2.CC12CC3CC(C)(C1)CC(N)(C3)C2.O=C(O)CCCCCCC(=O)O [hemi-suberate, Memantine Hemi-Suberate]
Propylene glycol monocaprylate solubility [1]: <5000 µg/mL

Memantine Hemi-Fumarate
Propylene glycol monocaprylate solubility [1]: <5000 µg/mL

Memantine Myristate
Skin permeability for 7 days [2]: 1083 ug/cm2
Skin penetration rate [2]: 6 ug/cm2/hr

CC12CC3CC(C)(C1)CC(N)(C3)C2.CC12CC3CC(C)(C1)CC(N)(C3)C2.O=C(O)CCCCCC(=O)O [hemi-pimelate, Memantine Hemi-Pimelate]
Propylene glycol monocaprylate solubility [1]: <5000 µg/mL

Memantine Hemi-Malate
Propylene glycol monocaprylate solubility [1]: <5000 µg/mL

CC12CC3CC(C)(C1)CC(N)(C3)C2 [free base, Memantine free base]
log P, the partition coefficient [3]: 3.28
